Primed or numbered codes have the meaning given here. Dabcyl′ = FRET label; Edans = FRET label
Key:
[1] = tested on: bacterial culture (media and cells); assay: Broad spectrum FRET assay, overnight bacterial culture; format: biochemical; conditions: pH 7.2, 150 mM NaCl, 37° C.
Procedure: (§1) A culture of each of the following bacterial species was grown overnight (O/N) in Brain Heart Infusion (BHI) broth at 37° C. with vigorous shaking (˜200 rpm), using methods that are standard in the art: Staphylococcus aureus; Streptococcus pyogenes; Serratia marcescens; Escherichia coli; Pseudomonas aeruginosa (PA14); Pseudomonas aeruginosa (GSU3); and Enterococcus faecalis. After overnight growth, a 1 ml sample of each culture was obtained, and the cells were removed from the culture supernatant by centrifugation at 12,000×g for 5 minutes. The remaining culture supernatants were stored on ice until required (less than one hour). The bacteria were assayed for the presence or absence of enzymes as described below.
Two peptide substrates, CPI1 and CPI2, were designed to encompass all of the cleavage sites of the RSL sequence, as shown in FIGS. 1A and 1B. The peptide substrates were labeled with the fluorescent probe edans (5-((2-aminoethyl)amino)naphthalene-1-sulfonic acid) and the quencher dye molecule dabcyl ((4-(4-(dimethylamino)phenyl)azo)benzoic acid).
The bacteria were grown in an incubator overnight at 37° C. in 5 mL BHI (Brain Heart Infusion) media. Each of the resulting cultures was split into two samples. […] The reaction was followed on a fluorimetric plate reader using an excitation wavelength of 355 nm and an emission wavelength of 485 nm. […]

[2] = tested on: proteases of Streptococcus; assay: Surface sensor sensitivity: cleavage of CPI2 by bacterial proteases; format: biochemical, Streptococcus pyogenes
Procedure: (§2) CPI2 was determined to be a good candidate for a broad-spectrum sensor. Surface sensors were constructed as follows:
(§3) Membrane used: Pall SB6407
(§4) The sensors were air dried and stored overnight at −20° C. Sensors were loaded into sterile 96 well plates for the sensitivity study.
(§5) The bacteria E. faecalis, P. aeruginosa, S. aureus, S. pyogenes, and S. marcescens were grown in an incubator overnight at 37° C. in 5 ml BHI (Brain Heart Infusion) media and diluted to the concentrations given for each experiment. Each strain of bacteria was diluted with PBS (pH 7.4) to obtain an optical density (OD) of approximately 0.52 at 550 nm. This OD was assumed to represent approximately 10^8 cells/ml of bacteria. The 10^8 cells/ml stock of each bacteria was diluted with PBS to obtain a concentration series of: 10^7, 10^6, 10^5 and 10^4 cells/ml. Sensitivity testing consisted of placing 100 μL of each of the concentration series of 10^7, 10^6, 10^5 and 10^4 cells/ml (cells) onto a row of sensors. Controls for each sensitivity testing consisted of sensors exposed to 100 μL PBS.
(§6) Data was taken at 4, 24 and 48 hours for each plate. […] Images were analyzed using NIH ImageJ, a public domain image processing and analysis program developed at the National Institutes of Health (NIH). […]

[3] = tested on: E. coli cells or supernatant; assay: Cleavage of CPI2 incubated with E. coli; format: biochemical, Escherichia coli
Procedure: as §1
The bacteria were grown in an incubator overnight at 37° C. in 5 mL BHI (Brain Heart Infusion) media. Each of the resulting cultures was split into two samples. One was used as a culture, and the other was spun down by centrifugation and the supernatant was collected. The assays were run in 20 mM tris buffer (pH 7.2) with 150 mM NaCl added […]. The cleavage reaction was carried out with 7 μL of culture or supernatant and 3 μL of peptide substrate (5 mg/mL in water/DMSO) in 100 μL total volume at 37° C. The reaction was followed on a fluorimetric plate reader using an excitation wavelength of 355 nm and an emission wavelength of 485 nm.

[4] = tested on: five different clinical strains of E. faecalis; assay: Inter-strain operability; format: biochemical, Enterococcus faecalis; conditions: all five clinical strains
From the text: A CIP2 fluorescent resonance entergy transfer (FRET) peptide was exposed to five different clinical strains of E. faecalis (obtained from the University of Colorado). […] FIG. 12 illustrates a graph of the relative fluorescence measured after exposure to the various strains.

[5] = tested on: proteases of Staphylococcus; assay: Surface sensor sensitivity: cleavage of CPI2 by bacterial proteases; format: biochemical, Staphylococcus aureus
Procedure: as §2, §3, §4, §5, §6

proteases of Serratia = assay: as above; format: biochemical, Serratia marcescens; conditions: for sensor signal: end of sensor study (40 hours)
Procedure: as §2, §3, §4, §5
Data was taken at 4, 24 and 48 hours for each plate. Data consisted of color (fluorescent) images of each plate taken under relatively uniform conditions (lighting, exposure time, etc.) using a Kodak DC290 digital camera. Images were analyzed using NIH ImageJ, a public domain image processing and analysis program developed at the National Institutes of Health (NIH). Analysis consisted of measuring the intensity value within each well (i.e., the sum of the intensity values of all the pixels in the selection divided by the number of pixels). Pixels range in value from 0 to 1. […] All sensor sensitivity data is plotted on an index scale from 0 to 1 versus time and the trends accurately reflect what is seen in the images.

[6] = tested on: proteases of Enterococcus; assay: as above; format: biochemical, Enterococcus faecalis
Procedure: as §2, §3, §4, §5, §6

[7] = Cleavage of CPI2 in uninfected wound fluid; format: biochemical; conditions: in the presence of uninfected wound fluid
proteases of Pseudomonas = assay: Surface sensor sensitivity: cleavage of CPI2 by bacterial proteases; format: biochemical, Pseudomonas aeruginosa
Procedure: as §2, §3, §4, §5, §6

[8] = 10^5 bacteria/ml, end of sensor study (40 hours)

Substance | protease activity (relative fluorescence) [1] | sensor signal [2, 8] | cleavage of peptide substrate ([2]; proteases of Streptococcus) | sensor signal ([3]; 10^5 bacteria/ml) | cleavage of peptide substrate ([3]; incubated with E. coli cells or supernatant) | reaction with strains (relative fluorescence) [4] | sensor signal [5, 8] | cleavage of peptide substrate ([5]; proteases of Staphylococcus) | sensor signal (proteases of Serratia; 10^4 bacteria/ml) | sensor signal (proteases of Serratia; 10^5 bacteria/ml) | cleavage of peptide substrate (proteases of Serratia; proteases of Serratia) | sensor signal [6, 8] | cleavage of peptide substrate ([6]; proteases of Enterococcus) | cleavage of peptide substrate [7] | sensor signal (proteases of Pseudomonas; [8]) | cleavage of peptide substrate (proteases of Pseudomonas; proteases of Pseudomonas)
Edans-EAAGAMFLEAIPK-Dabcyl (Edans-EAAGAMFLEAIPK-{Dabcyl′}) [CPI1] | protease activity was observed for a number of the bacteria |  |  |  |  |  |  |  |  |  |  |  |  |  |  | 
Edans-EGAMFLEAIPMSIPK-Dabcyl (Edans-EGAMFLEAIPMSIPK-{Dabcyl′}) [CPI2] | protease activity was observed for a number of the bacteria | strong signal | efficiently cleaved | not | not cleaved | reacted strongly | strong signal | efficiently cleaved | not observed to give a signal that can be significantly measured above the background | strong signal | efficiently cleaved | strong signal | efficiently cleaved | not cleaved | strong signal | efficiently cleaved
